# Measurements taken from patent US7138361B2, “Herbicidal heterocycles” (E. I. du Pont de Nemours and Company, priority 2000, dated 2006).
# Assays:
# Type in all cases: in vivo
# [1] = tested on: barnyardgrass (Echinochloa crus-galli); assay: Test C flooded paddy test; conditions: for Barnyardgrass plant response rating: Flooded Paddy, scale 0 to 100, 0 no effect, 100 complete control; for Plant response rating, Barnyardgrass: scale 0 to 100 (0 no effect, 100 complete control)
# How it was run: (§1)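 Ratings come from visual comparison with control plants after 12 to 14 days in the greenhouse. Each species was at the 2-leaf stage when the flooded paddy was treated. Scores run from 0, meaning no effect, to 100, meaning complete control.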
# [2] = tested on: smallflower flatsedge (Cyperus difformis); assay: Test C flooded paddy test; conditions: for Flatsedge plant response rating: Flooded Paddy, scale 0 to 100, 0 no effect, 100 complete control; for Plant response rating, Flatsedge: scale 0 to 100 (0 no effect, 100 complete control)
# How it was run: as §1
# [3] = tested on: duck salad (Heteranthera limosa); assay: Test C flooded paddy test; conditions: for Ducksalad plant response rating: Flooded Paddy, scale 0 to 100, 0 no effect, 100 complete control; for Plant response rating, Ducksalad: scale 0 to 100 (0 no effect, 100 complete control)
# How it was run: as §1
# rice (Oryza saliva) [4] = assay: Test C flooded paddy test; conditions: for Rice plant response rating: Flooded Paddy, scale 0 to 100, 0 no effect, 100 complete control; for Plant response rating, Rice: scale 0 to 100 (0 no effect, 100 complete control)
# How it was run: as §1
# [5] = tested on: crabgrass (Digitaria sanguinalis); assay: Test B postemergence
# How it was run: (§2)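 Ratings on a 0 to 100 visual scale (100 complete control) compare treated plants with controls 13 to 15 days after application. Treatments were pre- or postemergence sprays of compound in non-phytotoxic solvent with surfactant.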
# [6] = tested on: Surinam grass (Brachiaria decumbens); assay: Test B postemergence
# How it was run: as §2
# [7] = tested on: wheat (Triticum aestivum); assay: Test B postemergence
# How it was run: as §2
# [8] = tested on: barnyardgrass (Echinochloa crus-galli); assay: Test B postemergence
# How it was run: as §2
# [9] = tested on: morning glory (Ipomoea hederacea); assay: Test B postemergence
# How it was run: as §2
# corn (Zea mays) [10] = assay: Test B postemergence
# How it was run: as §2
# [11] = tested on: blackgrass (Alopecurus myosuroides); assay: Test B postemergence
# How it was run: as §2
# wild oat (Avena fatua) = assay: Test B postemergence
# How it was run: as §2
# [12] = tested on: velvetleaf (Abutilon theophrasti); assay: Test B postemergence
# How it was run: as §2
# [13] = tested on: cocklebur (Xanthium strumarium); assay: Test B postemergence
# How it was run: as §2
# [14] = tested on: pigweed (Amaranthus retroflexus); assay: Test B postemergence
# How it was run: as §2
# [15] = tested on: giant foxtail (Setaria faberii); assay: Test B postemergence
# How it was run: as §2
# [16] = tested on: lambsquarters (Chenopodium album); assay: Test B postemergence
# How it was run: as §2
# [17] = tested on: crabgrass (Digitaria sanguinalis); assay: Test B preemergence
# How it was run: as §2
# [18] = tested on: Surinam grass (Brachiaria decumbens); assay: Test B preemergence
# How it was run: as §2
# [19] = tested on: barnyardgrass (Echinochloa crus-galli); assay: Test B preemergence
# How it was run: as §2
# [20] = tested on: morning glory (Ipomoea hederacea); assay: Test B preemergence
# How it was run: as §2
# corn (Zea mays) [21] = assay: Test B preemergence
# How it was run: as §2
# rice (Oryza saliva) [22] = assay: Test B preemergence
# How it was run: as §2
# [23] = tested on: velvetleaf (Abutilon theophrasti); assay: Test B preemergence
# How it was run: as §2
# [24] = tested on: cocklebur (Xanthium strumarium); assay: Test B preemergence
# How it was run: as §2
# [25] = tested on: pigweed (Amaranthus retroflexus); assay: Test B preemergence
# How it was run: as §2
# [26] = tested on: giant foxtail (Setaria faberii); assay: Test B preemergence
# How it was run: as §2
# [27] = tested on: lambsquarters (Chenopodium album); assay: Test B preemergence
# How it was run: as §2
# [28] = flooded paddy test, Rate 125 g/ha
# [29] = flooded paddy test, Rate 250 g/ha
# [30] = flooded paddy test, Rate 62 g/ha, visually evaluated after 12 to 14 days, 0 = no effect, 100 = complete control
# [31] = Rate 125 g/ha, scale 0 to 100, 0 no effect, 100 complete control
# [32] = Rate 500 g/ha, scale 0 (no effect) to 100 (complete control), 13 to 15 days
# [33] = Preemergence, Rate 500 g/ha, scale 0 to 100, 0 no effect, 100 complete control
# [34] = preemergence, Rate 125 g/ha, scale of 0 to 100 where 0 is no effect and 100 is complete control, 13 to 15 days
# [35] = flooded paddy test, Rate 62 g/ha
# [36] = Rate 125 g/ha, scale 0 (no effect) to 100 (complete control), 13 to 15 days
# [37] = Rate 500 g/ha, scale 0 to 100, 0 is no effect, 100 is complete control, 13 to 15 days
smiles,measurement,setting,value
CC(C)(C)c1ccn(C2CCN(c3ccc(F)c(C(F)(F)F)c3)C2=O)n1 (centres unmarked) [Compound 146],Barnyardgrass plant response rating,[1]; Rate 500 g/ha,100
same,"Plant response rating, Barnyardgrass",[1]; [28],100
same,"Plant response rating, Barnyardgrass",[1]; [29],100
same,"Plant response rating (scale 0 to 100), Barnyardgrass",[1]; [30],75
same,Flatsedge plant response rating,[2]; Rate 500 g/ha,95
same,"Plant response rating, Flatsedge",[2]; [28],95
same,"Plant response rating, Flatsedge",[2]; [29],95
same,"Plant response rating (scale 0 to 100), Flatsedge",[2]; [30],60
same,Ducksalad plant response rating,[3]; Rate 500 g/ha,90
same,"Plant response rating, Ducksalad",[3]; [28],65
same,"Plant response rating, Ducksalad",[3]; [29],80
same,"Plant response rating (scale 0 to 100), Ducksalad",[3]; [30],40
same,Rice plant response rating,rice (Oryza saliva) [4]; Rate 500 g/ha,85
same,"Plant response rating, Rice",rice (Oryza saliva) [4]; [28],50
same,"Plant response rating, Rice",rice (Oryza saliva) [4]; [29],50
same,"Plant response rating (scale 0 to 100), Rice",rice (Oryza saliva) [4]; [30],15
same,"Plant response rating, Crabgrass",[5]; [31],0
same,"Plant response rating, Crabgrass",[5]; [32],60
same,"Plant response rating, Surinam grass",[6]; [31],0
same,"Plant response rating, Surinam grass",[6]; [32],0
same,"Plant response rating, Wheat",[7]; [31],0
same,"Plant response rating, Wheat",[7]; [32],0
same,"Plant response rating, Barnyardgrass",[8]; [31],0
same,"Plant response rating, Barnyardgrass",[8]; [32],90
same,"Plant response rating, Morningglory",[9]; [31],0
same,"Plant response rating, Morningglory",[9]; [32],0
same,"Plant response rating, Corn",corn (Zea mays) [10]; [31],0
same,"Plant response rating, Corn",corn (Zea mays) [10]; [32],0
same,"Plant response rating, Blackgrass",[11]; [31],0
same,"Plant response rating, Blackgrass",[11]; [32],0
same,"Plant response rating, Wild Oat",wild oat (Avena fatua); [31],0
same,"Plant response rating, Wild Oat",wild oat (Avena fatua); [32],0
same,"Plant response rating, Velvetleaf",[12]; [31],0
same,"Plant response rating, Velvetleaf",[12]; [32],0
same,"Plant response rating, Cocklebur",[13]; [31],0
same,"Plant response rating, Cocklebur",[13]; [32],0
same,"Plant response rating, Pigweed",[14]; [31],0
same,"Plant response rating, Pigweed",[14]; [32],70
same,"Plant response rating, Foxtail, Giant",[15]; [31],0
same,"Plant response rating, Foxtail, Giant",[15]; [32],70
same,"Plant response rating, Lambsquarters",[16]; [31],80
same,"Plant response rating, Lambsquarters",[16]; [32],100
same,"Plant response rating, Crabgrass",[17]; [33],100
same,"Plant response rating, Crabgrass",[17]; [34],100
same,"Plant response rating, Surinam grass",[18]; [33],100
same,"Plant response rating, Surinam grass",[18]; [34],40
same,"Plant response rating, Barnyardgrass",[19]; [33],100
same,"Plant response rating, Barnyardgrass",[19]; [34],90
same,"Plant response rating, Morningglory",[20]; [33],40
same,"Plant response rating, Morningglory",[20]; [34],0
same,"Plant response rating, Corn",corn (Zea mays) [21]; [33],0
same,"Plant response rating, Corn",corn (Zea mays) [21]; [34],0
same,"Plant response rating, Rice",rice (Oryza saliva) [22]; [33],0
same,"Plant response rating, Rice",rice (Oryza saliva) [22]; [34],0
same,"Plant response rating, Velvetleaf",[23]; [33],20
same,"Plant response rating, Velvetleaf",[23]; [34],0
same,"Plant response rating, Cocklebur",[24]; [33],0
same,"Plant response rating, Cocklebur",[24]; [34],0
same,"Plant response rating, Pigweed",[25]; [33],100
same,"Plant response rating, Pigweed",[25]; [34],100
same,"Plant response rating, Foxtail, Giant",[26]; [33],100
same,"Plant response rating, Foxtail, Giant",[26]; [34],100
same,"Plant response rating, Lambsquarters",[27]; [33],100
same,"Plant response rating, Lambsquarters",[27]; [34],100
Cc1cc(N2CCC(n3ccc(C(C)(C)C)n3)C2=O)cc(Br)c1C (centres unmarked) [Compound 77],Barnyardgrass plant response rating,[1]; Rate 250 g/ha,0
same,Barnyardgrass plant response rating,[1]; Rate 500 g/ha,20
same,"Plant response rating, Barnyardgrass",[1]; [35],0
same,"Plant response rating, Barnyardgrass",[1]; [28],0
same,Flatsedge plant response rating,[2]; Rate 250 g/ha,80
same,Flatsedge plant response rating,[2]; Rate 500 g/ha,80
same,"Plant response rating, Flatsedge",[2]; [35],70
same,"Plant response rating, Flatsedge",[2]; [28],70
same,Ducksalad plant response rating,[3]; Rate 250 g/ha,0
same,Ducksalad plant response rating,[3]; Rate 500 g/ha,30
same,"Plant response rating, Ducksalad",[3]; [35],0
same,"Plant response rating, Ducksalad",[3]; [28],0
same,Rice plant response rating,rice (Oryza saliva) [4]; Rate 250 g/ha,0
same,Rice plant response rating,rice (Oryza saliva) [4]; Rate 500 g/ha,30
same,"Plant response rating, Rice",rice (Oryza saliva) [4]; [35],0
same,"Plant response rating, Rice",rice (Oryza saliva) [4]; [28],0
same,"Plant response rating, Crabgrass",[5]; [36],0
same,"Plant response rating, Crabgrass",[5]; [37],0
same,"Plant response rating, Surinam grass",[6]; [36],0
same,"Plant response rating, Surinam grass",[6]; [37],0
same,"Plant response rating, Wheat",[7]; [36],0
same,"Plant response rating, Wheat",[7]; [37],0
same,"Plant response rating, Barnyardgrass",[8]; [36],0
same,"Plant response rating, Barnyardgrass",[8]; [37],0
same,"Plant response rating, Morningglory",[9]; [36],0
same,"Plant response rating, Morningglory",[9]; [37],0
same,"Plant response rating, Corn",corn (Zea mays) [10]; [36],0
same,"Plant response rating, Corn",corn (Zea mays) [10]; [37],0
same,"Plant response rating, Blackgrass",[11]; [36],0
same,"Plant response rating, Blackgrass",[11]; [37],0
same,"Plant response rating, Wild Oat",wild oat (Avena fatua); [36],0
same,"Plant response rating, Wild Oat",wild oat (Avena fatua); [37],0
same,"Plant response rating, Velvetleaf",[12]; [36],0
same,"Plant response rating, Velvetleaf",[12]; [37],0
same,"Plant response rating, Cocklebur",[13]; [36],0
same,"Plant response rating, Cocklebur",[13]; [37],20
same,"Plant response rating, Pigweed",[14]; [36],70
same,"Plant response rating, Pigweed",[14]; [37],80
same,"Plant response rating, Foxtail, Giant",[15]; [36],0
same,"Plant response rating, Foxtail, Giant",[15]; [37],0
same,"Plant response rating, Lambsquarters",[16]; [36],0
same,"Plant response rating, Lambsquarters",[16]; [37],20
same,"Plant response rating, Crabgrass",[17]; [33],90
same,"Plant response rating, Crabgrass",[17]; [34],60
same,"Plant response rating, Surinam grass",[18]; [33],40
same,"Plant response rating, Surinam grass",[18]; [34],0
same,"Plant response rating, Barnyardgrass",[19]; [33],100
same,"Plant response rating, Barnyardgrass",[19]; [34],20
same,"Plant response rating, Morningglory",[20]; [33],0
same,"Plant response rating, Morningglory",[20]; [34],0
same,"Plant response rating, Corn",corn (Zea mays) [21]; [33],0
same,"Plant response rating, Corn",corn (Zea mays) [21]; [34],0
same,"Plant response rating, Rice",rice (Oryza saliva) [22]; [33],0
same,"Plant response rating, Rice",rice (Oryza saliva) [22]; [34],0
same,"Plant response rating, Velvetleaf",[23]; [33],0
same,"Plant response rating, Velvetleaf",[23]; [34],0
same,"Plant response rating, Cocklebur",[24]; [33],0
same,"Plant response rating, Cocklebur",[24]; [34],0
same,"Plant response rating, Pigweed",[25]; [33],100
same,"Plant response rating, Pigweed",[25]; [34],90
same,"Plant response rating, Foxtail, Giant",[26]; [33],0
same,"Plant response rating, Foxtail, Giant",[26]; [34],0
same,"Plant response rating, Lambsquarters",[27]; [33],100
same,"Plant response rating, Lambsquarters",[27]; [34],90
